Laboratory results: US7851474B2, “Dipiperazinyl ketones and related analogues” (Neurogen Corporation, priority 2005, dated 2010)
Like-named read-outs stand apart in the source and are kept apart here.

Molecular target: T1, chimeric human H3 receptor (Homo sapiens, UniProt Q9Y5N1, E19D)
T1 construct: made in house; host or cells: Sf9 insect cells (baculovirus infection); P2 membrane preparation
Assay: Chimeric human H3 receptor GTP binding assay (agonist-stimulated GTP-gamma35S binding, Example 7)
Format: biochemical
Details: read-out: Ki
Method in brief: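 IC50 values come from non-linear regression of dose-response curves of filter-bound GTP-gamma^35S, counted by scintillation. Membranes were from infected Sf9 cells carrying receptor plus G-protein subunits, 35 μg/tube, with 10 μM GDP present.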

[1] = Table II, assay of Example 7, "*" in Ki
[2] = Table II "Ki", symbol "*": Ki in the assay of Example 7
[3] = assay of Example 7, symbol * in column headed Ki of Table II
[4] = Table II, "*" in Ki, assay of Example 7
[5] = assay of Example 7, "*" in Ki of Table II

T1 sequence (Q9Y5N1 with tags, fused parts or gaps E19D): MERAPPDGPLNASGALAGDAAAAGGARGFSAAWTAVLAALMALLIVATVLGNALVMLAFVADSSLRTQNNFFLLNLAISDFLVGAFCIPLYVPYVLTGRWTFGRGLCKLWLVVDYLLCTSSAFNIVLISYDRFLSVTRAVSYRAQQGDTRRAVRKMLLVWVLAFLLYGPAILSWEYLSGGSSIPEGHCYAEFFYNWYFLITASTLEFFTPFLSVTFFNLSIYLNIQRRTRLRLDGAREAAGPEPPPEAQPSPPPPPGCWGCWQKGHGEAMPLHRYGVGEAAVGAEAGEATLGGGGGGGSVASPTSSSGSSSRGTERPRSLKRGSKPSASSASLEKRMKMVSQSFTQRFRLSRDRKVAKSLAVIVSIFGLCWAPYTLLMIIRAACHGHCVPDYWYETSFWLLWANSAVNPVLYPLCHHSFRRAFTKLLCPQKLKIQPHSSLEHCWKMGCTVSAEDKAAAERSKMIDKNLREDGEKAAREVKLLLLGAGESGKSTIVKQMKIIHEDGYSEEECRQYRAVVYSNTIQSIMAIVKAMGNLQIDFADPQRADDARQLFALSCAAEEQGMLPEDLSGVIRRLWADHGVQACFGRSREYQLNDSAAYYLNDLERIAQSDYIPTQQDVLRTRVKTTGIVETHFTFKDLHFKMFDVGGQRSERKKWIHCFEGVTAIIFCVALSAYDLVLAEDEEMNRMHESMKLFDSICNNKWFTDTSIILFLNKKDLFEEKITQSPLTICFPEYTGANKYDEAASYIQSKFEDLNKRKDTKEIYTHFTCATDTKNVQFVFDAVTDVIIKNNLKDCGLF

Q: For `O=C(CN1CCC(N2CCCCCC2)CC1)N1CCN(C2CCCCC2)CC1` [Compound 480, 1-{1-[2-(4-cyclohexylpiperazin-1-yl)-2-oxoethyl]piperidin-4-yl}azepane], which Ki ("*" in Ki of Table II, assay of Example 7) is on record?
A: < 1 µM

Q: With `Cc1ccc(-c2ccc(N3CCN(CC(=O)N4CCN(C5CCC5)CC4)CC3)nn2)cc1F` [Compound 1009, 3-{4-[2-(4-cyclobutylpiperazin-1-yl)-2-oxoethyl]piperazin-1-yl}-6-(3-fluoro-4-methylphenyl)pyridazine] as the molecule, how does the Ki [1] read?
A: < 1 µM

Q: How did the Ki [1] turn out when `COc1ccc(N2CCN(CC(=O)N3CCN(C4CCCCC4)CC3)CC2C)cc1` (stereo not shown) [Compound 1106, 4-[2-(4-cyclohexylpiperazin-1-yl)-2-oxoethyl]-1-(4-methoxyphenyl)-2-methylpiperazine] was run?
A: < 1 µM

Q: How did the Ki [2] turn out when `O=C(CN1CCN(c2cnc(-c3ccc(F)c(Cl)c3)cn2)CC1)N1CCN(C2CCC2)CC1` [Compound 899, 2-(3-chloro-4-fluorophenyl)-5-{4-[2-(4-cyclobutylpiperazin-1-yl)-2-oxoethyl)piperazin-1-yl}pyrazine] was run?
A: < 1 µM

Q: For `O=C(CN1CCN(c2ccc(F)cc2F)CC1)N1C[C@H]2C[C@@H]1CN2C1CCC1` [Compound 247, (1R,4R)-2-cyclobutyl-5-{[4-(2,4-difluorophenyl)piperazin-1-yl]acetyl}-2,5-diaza bicyclo[2.2.1]heptane], which Ki [3] is on record?
A: < 1 µM

Q: How did the Ki [4] turn out when `O=C(CN1CCN(c2ccc(C(=O)N3CCCC3)cn2)CC1)N1CCN(C2CCC2)CC1` [Compound 611, 1-cyclobutyl-4-({4-[5-(pyrrolidin-1-ylcarbonyl)pyridin-2-yl]piperazin-1-yl}acetyl)piperazine] was run?
A: < 1 µM

Q: Which Ki [3] does the source give for `CC(=O)c1ccc(N2CCN(CC(=O)N3CCN(C4CCC4)CC3)CC2)nn1` [Compound 372, 1-(6-{4-[2-(4-cyclobutylpiperazin-1-yl)-2-oxoethyl]piperazin-1-yl}pyridazin-3-yl)ethanone] here?
A: < 1 µM

Q: With `COc1ccc(-c2ccc(N3CCN(CC(=O)N4CCN(C5CCC5)CC4)CC3)cc2)c(OC)c1` [Compound 678, 1-cyclobutyl-4-{[4-(2′,4′-dimethoxybiphenyl-4-yl)piperazin-1-yl]acetyl}piperazine] as the molecule, how does the Ki [4] read?
A: < 1 µM

Q: How did the Ki [5] turn out when `O=C(NC1CCCCC1)c1ccc(N2CCN(CC(=O)N3CCN(C4CCC4)CC3)CC2)nc1` [Compound 1181, 6-{4-[2-(4-cyclobutylpiperazin-1-yl)-2-oxoethyl]piperazin-1-yl}-N-cyclohexylnicotinamide] was run?
A: < 1 µM

Q: Which Ki [1] does the source give for `COc1ccc(-c2ccc(-c3cnc(N4CCN(CC(=O)N5CCN(C6CCC6)CC5)CC4)cn3)cc2)cc1` [Compound 939, 2-{4-[2-(4-cyclobutylpiperazin-1-yl)-2-oxoethyl]piperazin-1-yl}-5-(4′-methoxybiphenyl-4-yl)pyrazine] here?
A: < 1 µM

Q: `CSc1cccc(-c2ccc(N3CCN(CC(=O)N4CCN(C5CCC5)CC4)CC3)cc2)c1` [Compound 584, 1-cyclobutyl-4-({4-[3′-(methylthio)biphenyl-4-yl]piperazin-1-yl}acetyl)piperazine] was tested. Which Ki [4] did it give?
A: < 1 µM

Q: With `O=C(CN1CCN(c2ccc(-c3ccc(OC(F)(F)F)cc3)cc2)CC1)N1CCN(C2CCC2)CC1` [Compound 604, 1-cyclobutyl-4-({4-[4′-(trifluoromethoxy)biphenyl-4-yl]piperazin-1-yl}acetyl)piperazine] as the molecule, how does the Ki [4] read?
A: < 1 µM

Q: How did the Ki [4] turn out when `O=C(CN1CCN(c2ccc(-c3ccc(Cl)c(Cl)c3)cc2)CC1)N1CCN(C2CCC2)CC1` [Compound 727, 1-cyclobutyl-4-{[4-(3′,4′-dichlorobiphenyl-4-yl)piperazin-1-yl]acetyl}piperazine] was run?
A: < 1 µM

Q: Which Ki [4] does the source give for `CCOc1ccc(-c2ccc(N3CCN(CC(=O)N4CCN(C5CCC5)CC4)CC3)cc2)cc1` [Compound 769, 1-cyclobutyl-4-{[4-(4′-ethoxybiphenyl-4-yl)piperazin-1-yl]acetyl}piperazine] here?
A: < 1 µM

Q: `COc1ccc(C(=O)NC2CCN(CC(=O)N3CCN(C4CCC4)CC3)CC2)cc1F` [Compound 1214, N-{1-[2-(4-cyclobutylpiperazin-1-yl)-2-oxoethyl]piperidin-4-yl}-3-fluoro-4-methoxybenzamide] was tested. Which Ki [5] did it give?
A: < 1 µM

Q: Which Ki [3] does the source give for `CC(=O)c1ccc(-c2cccc(N3CCN(CC(=O)N4CCN(C5CCC5)CC4)CC3)c2)cc1` [Compound 288, 1-(3′-{4-[2-(4-cyclobutylpiperazin-1-yl)-2-oxoethyl]piperazin-1-yl}biphenyl-4-yl)ethanone] here?
A: < 1 µM

Q: With `COc1ccc(N2CCN(CC(=O)N3CCN(C4CCC4)CC3)CC2)cc1` [Compound 782, 1-cyclobutyl-4-{[4-(4-methoxyphenyl)piperazin-1-yl]acetyl}piperazine] as the molecule, how does the Ki [2] read?
A: < 1 µM

Q: Which Ki [1] does the source give for `O=C(CN1CCN(c2ccc(-c3cccc(Cl)c3)nn2)CC1)N1CCN(C2CCC2)CC1` [Compound 988, 3-(3-chlorophenyl)-6-{4-[2-(4-cyclobutylpiperazin-1-yl)-2-oxoethyl]piperazin-1-yl}pyridazine] here?
A: < 1 µM

Q: `CC(C)CNC(=O)c1ccc(N2CCN(CC(=O)N3CCN(C4CCC4)CC3)CC2)cc1` [Compound 1134, 4-{4-[2-(4-cyclobutylpiperazin-1-yl)-2-oxoethyl]piperazin-1-yl}-N-isobutylbenzamide] was tested. Which Ki [1] did it give?
A: < 1 µM

Q: For `O=C(CN1CCC2(CC1)c1ccccc1C(=O)N2Cc1ccccc1)N1CCN(C2CCC2)CC1` [Compound 981, 2-benzyl-1′-[2-(4-cyclobutylpiperazin-1-yl)-2-oxoethyl]spiro[isoindole-1,4′-piperidin]-3(2H)-one], which Ki [1] is on record?
A: < 1 µM

Q: For `O=C(CN1CCN(c2ccc([N+](=O)[O-])cc2)CC1)N1CCN(C2CCC2)CC1` [Compound 786, 1-cyclobutyl-4-{[4-(4-nitrophenyl)piperazin-1-yl]acetyl}piperazine], which Ki [2] is on record?
A: < 1 µM

Q: `O=C(CN1CCN(c2cnc(-c3cccc4c3oc3ccccc34)cn2)CC1)N1CCN(C2CCC2)CC1` [Compound 956, 2-{4-[2-(4-cyclobutylpiperazin-1-yl)-2-oxoethyl]piperazin-1-yl}-5-dibenzo[b,d]furan-4-ylpyrazine] was tested. Which Ki [1] did it give?
A: < 1 µM

Q: With `O=C(CN1CCN(c2cnc(-c3ccccc3Cl)cn2)CC1)N1CCN(C2CCC2)CC1` [Compound 898, 2-(2-chlorophenyl)-5-{4-[2-(4-cyclobutylpiperazin-1-yl)-2-oxoethyl]piperazin-1-yl}pyrazine] as the molecule, how does the Ki [2] read?
A: < 1 µM

Q: `CCC(CC)CNC(=O)c1cccc(N2CCN(CC(=O)N3CCN(C4CCC4)CC3)CC2)c1` [Compound 1086, 3-{4-[2-(4-cyclobutylpiperazin-1-yl)-2-oxoethyl]piperazin-1-yl}-N-(2-ethylbutyl)benzamide] was tested. Which Ki [1] did it give?
A: < 1 µM

Q: `O=C(CN1CCN(c2ccc(-c3ccccc3C(F)(F)F)nn2)CC1)N1CCN(C2CCC2)CC1` [Compound 1056, 3-{4-[2-(4-cyclobutylpiperazin-1-yl)-2-oxoethyl]piperazin-1-yl}-6-[2-(trifluoromethyl)phenyl] pyridazine] was tested. Which Ki [1] did it give?
A: < 1 µM

Q: How did the Ki [5] turn out when `CC(C)CN1CCN(C(=O)CN2CCN(c3ccc4c(c3)CCC4=O)CC2)CC1` [Compound 1162, 5-{4-[2-(4-isobutylpiperazin-1-yl)-2-oxoethyl]piperazin-1-yl}indan-1-one] was run?
A: < 1 µM

Q: How did the Ki [3] turn out when `O=C(Cc1ccccc1Br)N1CCN(CC(=O)N2CCN(C3CCC3)CC2)CC1` [Compound 380, 1-[(2-bromophenyl)acetyl]-4-[2-(4-cyclobutylpiperazin-1-yl)-2-oxoethyl]piperazine] was run?
A: < 1 µM

Q: `O=C(CN1CCN(c2nc3ccccc3n2Cc2ccc(F)cc2)CC1)N1CCN(C2CCCC2)CC1` [Compound 978, 2-{4-[2-(4-cyclopentylpiperazin-1-yl)-2-oxoethyl]piperazin-1-yl}-1-(4-fluorobenzyl)-1H-benzimidazole] was tested. Which Ki [1] did it give?
A: < 1 µM
